Reference: ChEMBL document CHEMBL4304789, “Design, Synthesis, and Biological Evaluation of 2,4-Imidazolinedione Derivatives as HDAC6 Isoform-Selective Inhibitors” (ACS Med Chem Lett, 2019)

Key:
Histone deacetylase 11 = target: T1, Histone deacetylase 11 (Homo sapiens, UniProt Q96DB2); assay: Inhibition of HDAC11 (unknown origin) using Ac-LeuGlyLys(Ac)-AMC as substrate preincubated for 5 mins followed by substrate addition and measured after 60 mins by fluorescence based assay
T1 sequence (Q96DB2 whole entry): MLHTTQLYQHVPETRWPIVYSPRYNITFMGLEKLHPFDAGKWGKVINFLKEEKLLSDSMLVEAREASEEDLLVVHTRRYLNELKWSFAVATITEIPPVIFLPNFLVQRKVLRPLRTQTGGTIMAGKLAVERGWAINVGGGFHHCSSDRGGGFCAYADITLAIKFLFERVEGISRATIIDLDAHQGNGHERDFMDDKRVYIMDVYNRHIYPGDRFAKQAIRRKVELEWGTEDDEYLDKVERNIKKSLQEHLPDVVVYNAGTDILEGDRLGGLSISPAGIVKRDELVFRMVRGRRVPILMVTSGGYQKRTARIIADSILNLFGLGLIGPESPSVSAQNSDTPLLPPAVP

RPMI-8226 = assay: Antiproliferative activity against human RPMI8226 cells incubated for 48 hrs by MTT assay; assay type: functional, cell-based; conditions: RPMI-8226, 48 h
[1] = target: T2, Protein deacetylase HDAC6 (Homo sapiens, UniProt Q9UBN7); assay: Inhibition of HDAC6 (unknown origin) using Ac-LeuGlyLys(Ac)-AMC as substrate preincubated for 5 mins followed by substrate addition and measured after 60 mins by fluorescence based assay
T2 sequence (Q9UBN7 whole entry): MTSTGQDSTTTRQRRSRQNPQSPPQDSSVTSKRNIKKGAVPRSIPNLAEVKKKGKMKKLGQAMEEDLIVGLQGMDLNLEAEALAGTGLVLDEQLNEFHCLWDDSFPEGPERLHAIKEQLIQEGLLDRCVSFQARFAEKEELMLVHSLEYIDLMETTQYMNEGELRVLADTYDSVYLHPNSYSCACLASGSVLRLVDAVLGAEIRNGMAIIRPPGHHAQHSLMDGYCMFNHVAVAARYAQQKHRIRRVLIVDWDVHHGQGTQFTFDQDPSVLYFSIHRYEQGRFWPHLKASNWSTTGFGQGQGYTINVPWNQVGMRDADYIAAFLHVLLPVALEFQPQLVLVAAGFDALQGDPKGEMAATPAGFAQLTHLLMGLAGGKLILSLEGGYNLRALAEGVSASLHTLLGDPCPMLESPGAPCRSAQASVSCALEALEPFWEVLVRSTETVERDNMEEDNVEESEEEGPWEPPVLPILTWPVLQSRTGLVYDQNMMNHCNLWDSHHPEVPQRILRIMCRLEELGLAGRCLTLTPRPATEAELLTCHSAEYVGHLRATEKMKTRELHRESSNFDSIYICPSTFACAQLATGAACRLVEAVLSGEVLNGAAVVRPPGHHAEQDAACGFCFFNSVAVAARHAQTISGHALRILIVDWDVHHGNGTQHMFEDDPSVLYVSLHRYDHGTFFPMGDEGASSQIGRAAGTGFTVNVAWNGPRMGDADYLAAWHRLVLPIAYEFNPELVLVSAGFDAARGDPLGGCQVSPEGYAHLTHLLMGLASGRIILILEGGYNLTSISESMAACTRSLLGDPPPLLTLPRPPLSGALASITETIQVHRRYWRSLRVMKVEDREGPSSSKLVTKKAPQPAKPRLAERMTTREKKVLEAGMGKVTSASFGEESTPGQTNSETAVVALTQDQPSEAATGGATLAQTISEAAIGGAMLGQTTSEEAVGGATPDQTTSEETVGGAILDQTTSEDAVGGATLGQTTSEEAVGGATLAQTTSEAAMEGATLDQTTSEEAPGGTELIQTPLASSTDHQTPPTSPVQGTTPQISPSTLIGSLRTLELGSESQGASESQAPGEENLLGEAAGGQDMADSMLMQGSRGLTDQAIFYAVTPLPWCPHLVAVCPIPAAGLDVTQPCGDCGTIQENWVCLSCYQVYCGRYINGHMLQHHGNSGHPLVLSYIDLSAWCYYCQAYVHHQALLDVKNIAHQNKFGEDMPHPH

Histone deacetylase 5 = Histone deacetylase 5 (Homo sapiens, UniProt Q9UQL6); assay: Inhibition of HDAC5 (unknown origin) using Ac-LeuGlyLys(tfa)-AMC as substrate preincubated for 5 mins followed by substrate addition and measured after 60 mins by fluorescence based assay
Sequence of Histone deacetylase 5 (Q9UQL6 whole entry): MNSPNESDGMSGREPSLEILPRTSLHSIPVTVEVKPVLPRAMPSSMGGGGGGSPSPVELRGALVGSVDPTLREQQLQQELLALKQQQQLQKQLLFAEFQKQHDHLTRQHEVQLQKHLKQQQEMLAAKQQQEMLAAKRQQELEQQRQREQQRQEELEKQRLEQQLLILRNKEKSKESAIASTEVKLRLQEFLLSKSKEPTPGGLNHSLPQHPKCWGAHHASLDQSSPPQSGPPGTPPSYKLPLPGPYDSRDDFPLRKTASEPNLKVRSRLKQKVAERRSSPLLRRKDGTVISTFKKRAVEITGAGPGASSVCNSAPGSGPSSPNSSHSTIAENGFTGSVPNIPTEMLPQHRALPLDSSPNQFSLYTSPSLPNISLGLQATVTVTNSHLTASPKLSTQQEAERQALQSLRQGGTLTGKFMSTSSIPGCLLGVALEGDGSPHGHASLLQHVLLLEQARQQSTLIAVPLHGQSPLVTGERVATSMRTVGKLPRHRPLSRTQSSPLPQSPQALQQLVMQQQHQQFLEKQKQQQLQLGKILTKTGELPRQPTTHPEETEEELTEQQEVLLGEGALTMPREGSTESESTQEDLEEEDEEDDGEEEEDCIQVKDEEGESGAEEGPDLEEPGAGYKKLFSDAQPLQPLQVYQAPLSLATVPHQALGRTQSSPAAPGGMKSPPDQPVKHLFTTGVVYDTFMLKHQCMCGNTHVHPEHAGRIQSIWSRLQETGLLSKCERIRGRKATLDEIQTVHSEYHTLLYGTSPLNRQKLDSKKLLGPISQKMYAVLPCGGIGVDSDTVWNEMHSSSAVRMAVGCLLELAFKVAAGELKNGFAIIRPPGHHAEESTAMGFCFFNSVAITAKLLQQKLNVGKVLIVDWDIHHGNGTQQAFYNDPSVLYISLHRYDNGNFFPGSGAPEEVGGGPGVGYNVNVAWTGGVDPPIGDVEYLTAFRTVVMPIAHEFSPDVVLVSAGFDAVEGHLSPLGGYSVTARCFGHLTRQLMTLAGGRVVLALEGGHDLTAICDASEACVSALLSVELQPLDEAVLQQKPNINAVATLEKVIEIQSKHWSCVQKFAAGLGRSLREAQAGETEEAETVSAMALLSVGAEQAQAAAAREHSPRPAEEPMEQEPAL

Histone deacetylase 2 = Histone deacetylase 2 (Homo sapiens, UniProt Q92769); assay: Inhibition of HDAC2 (unknown origin) using Ac-LeuGlyLys(Ac)-AMC as substrate preincubated for 5 mins followed by substrate addition and measured after 60 mins by fluorescence based assay
Sequence of Histone deacetylase 2 (Q92769 whole entry): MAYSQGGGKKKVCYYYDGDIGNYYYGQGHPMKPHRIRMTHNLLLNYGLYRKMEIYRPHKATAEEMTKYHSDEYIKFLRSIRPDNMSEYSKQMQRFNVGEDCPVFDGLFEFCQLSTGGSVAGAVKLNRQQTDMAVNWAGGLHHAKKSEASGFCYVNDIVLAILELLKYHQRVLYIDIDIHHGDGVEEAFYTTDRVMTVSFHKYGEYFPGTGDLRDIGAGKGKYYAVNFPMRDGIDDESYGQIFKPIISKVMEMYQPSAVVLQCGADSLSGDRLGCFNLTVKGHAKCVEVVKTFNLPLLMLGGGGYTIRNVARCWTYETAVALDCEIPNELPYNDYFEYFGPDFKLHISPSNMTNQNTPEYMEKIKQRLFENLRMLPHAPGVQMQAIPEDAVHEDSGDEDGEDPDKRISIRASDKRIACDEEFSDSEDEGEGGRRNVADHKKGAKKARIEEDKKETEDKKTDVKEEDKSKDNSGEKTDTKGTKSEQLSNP

K562 = assay: Antiproliferative activity against human K562 cells incubated for 48 hrs by MTT assay; assay type: functional, cell-based; conditions: K562, 48 h
HCT-116 = assay: Antiproliferative activity against human HCT116 cells incubated for 48 hrs by MTT assay; assay type: functional, cell-based; conditions: HCT-116, 48 h
Histone deacetylase 9 = Histone deacetylase 9 (Homo sapiens, UniProt Q9UKV0); assay: Inhibition of HDAC9 (unknown origin) using Ac-LeuGlyLys(tfa)-AMC as substrate preincubated for 5 mins followed by substrate addition and measured after 60 mins by fluorescence based assay
Sequence of Histone deacetylase 9 (Q9UKV0 whole entry): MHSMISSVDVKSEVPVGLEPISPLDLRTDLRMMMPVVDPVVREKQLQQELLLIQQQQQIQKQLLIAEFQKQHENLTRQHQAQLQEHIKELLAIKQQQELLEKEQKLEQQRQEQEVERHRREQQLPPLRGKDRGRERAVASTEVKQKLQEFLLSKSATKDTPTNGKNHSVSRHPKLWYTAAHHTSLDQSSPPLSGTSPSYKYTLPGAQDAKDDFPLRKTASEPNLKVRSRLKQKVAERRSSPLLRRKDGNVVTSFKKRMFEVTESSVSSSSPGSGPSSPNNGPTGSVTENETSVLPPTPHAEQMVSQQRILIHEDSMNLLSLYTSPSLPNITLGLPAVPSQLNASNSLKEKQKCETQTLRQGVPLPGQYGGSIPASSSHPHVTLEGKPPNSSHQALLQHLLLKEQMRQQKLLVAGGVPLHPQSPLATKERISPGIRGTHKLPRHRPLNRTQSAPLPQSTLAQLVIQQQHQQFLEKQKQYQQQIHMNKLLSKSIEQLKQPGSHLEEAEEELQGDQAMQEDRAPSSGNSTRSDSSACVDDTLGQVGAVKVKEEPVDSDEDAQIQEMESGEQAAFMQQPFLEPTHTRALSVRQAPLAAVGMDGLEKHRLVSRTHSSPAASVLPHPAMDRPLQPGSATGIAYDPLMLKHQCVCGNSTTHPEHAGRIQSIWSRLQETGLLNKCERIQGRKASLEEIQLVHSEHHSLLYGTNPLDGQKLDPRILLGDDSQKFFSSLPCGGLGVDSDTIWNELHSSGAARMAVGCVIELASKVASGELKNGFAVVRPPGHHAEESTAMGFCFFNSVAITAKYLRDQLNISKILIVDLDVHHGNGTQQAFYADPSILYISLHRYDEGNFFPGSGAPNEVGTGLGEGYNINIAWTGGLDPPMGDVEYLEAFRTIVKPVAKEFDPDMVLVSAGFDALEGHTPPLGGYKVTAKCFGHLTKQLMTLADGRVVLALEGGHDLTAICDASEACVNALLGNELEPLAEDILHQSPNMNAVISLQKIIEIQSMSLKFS

A549 = assay: Antiproliferative activity against human A549 cells incubated for 48 hrs by MTT assay; assay type: functional, cell-based; conditions: A549, 48 h
Histone deacetylase 1 = Histone deacetylase 1 (Homo sapiens, UniProt Q13547); assay: Inhibition of HDAC1 (unknown origin) using Ac-LeuGlyLys(Ac)-AMC as substrate preincubated for 5 mins followed by substrate addition and measured after 60 mins by fluorescence based assay
Sequence of Histone deacetylase 1 (Q13547 whole entry): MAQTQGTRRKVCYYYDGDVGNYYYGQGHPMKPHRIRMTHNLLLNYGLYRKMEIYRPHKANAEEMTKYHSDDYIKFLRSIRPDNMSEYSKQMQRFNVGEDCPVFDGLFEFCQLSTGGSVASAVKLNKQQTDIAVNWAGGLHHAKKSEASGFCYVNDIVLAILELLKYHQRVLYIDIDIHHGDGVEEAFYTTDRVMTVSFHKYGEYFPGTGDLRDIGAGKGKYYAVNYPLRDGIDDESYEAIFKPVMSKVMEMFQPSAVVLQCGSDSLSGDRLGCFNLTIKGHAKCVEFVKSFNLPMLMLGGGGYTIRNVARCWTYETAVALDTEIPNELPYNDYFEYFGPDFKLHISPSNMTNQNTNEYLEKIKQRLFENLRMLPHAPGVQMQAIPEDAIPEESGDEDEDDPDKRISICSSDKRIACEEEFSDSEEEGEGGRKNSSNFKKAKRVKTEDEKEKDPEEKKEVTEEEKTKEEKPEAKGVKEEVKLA

Row | IC50 (Histone deacetylase 11) [µM] | IC50 (RPMI-8226) [nM] | IC50 [1] [nM] | IC50 (Histone deacetylase 5) [µM] | IC50 (Histone deacetylase 2) [nM] | IC50 (K562) [nM] | IC50 (HCT-116) [nM] | IC50 (Histone deacetylase 9) [µM] | IC50 (A549) [µM] | IC50 (Histone deacetylase 1) [nM] | Structure (SMILES)
1 | > 100 | 640 | 7.6 | 4.6 | 203 | 830 | 2250 | 15.2 | 9.45 | 111 | O=C(CCC1C(=O)N(c2ccc(Cl)cc2)C(=O)N1Cc1ccccc1)Nc1ccc(C(=O)NO)cc1 (stereo not given)
2 | > 100 | 230 | 4.4 | 14.9 | 277 | 490 | 830 | > 100 | 0.79 | 959 | Cc1ccc(CN2C(=O)N(c3ccc(Cl)cc3)C(=O)C2CCC(=O)Nc2ccc(C(=O)NO)cc2)cc1 (stereo not given)
3 | > 100 | 360 | 9.7 | 4.6 | 249 | 690 | 1250 | 9.1 | 5.86 | 194 | O=C(CCC1C(=O)N(c2ccc(Cl)cc2)C(=O)N1Cc1ccc(Br)cc1)Nc1ccc(C(=O)NO)cc1 (stereo not given)
